Patent US20230139171A1 (SITA Information Networking Computing UK Limited, priority 2019, published 2023)

Experiments:
Assay type in all cases: cell-based
[1] = target: T1, human TLR7 (Homo sapiens, UniProt Q9NYK1); assay: TLR7 inhibition reporter assay (HEK-Blue cells, SEAP reporter, gardiquimod stimulation); details: HEK-Blue cells overexpressing human TLR7, SEAP reporter, gardiquimod 7.5 μM; read-out: TLR7 IC50
T1 construct: host or cells: HEK-Blue cells
T1 sequence (Q9NYK1 27-1049): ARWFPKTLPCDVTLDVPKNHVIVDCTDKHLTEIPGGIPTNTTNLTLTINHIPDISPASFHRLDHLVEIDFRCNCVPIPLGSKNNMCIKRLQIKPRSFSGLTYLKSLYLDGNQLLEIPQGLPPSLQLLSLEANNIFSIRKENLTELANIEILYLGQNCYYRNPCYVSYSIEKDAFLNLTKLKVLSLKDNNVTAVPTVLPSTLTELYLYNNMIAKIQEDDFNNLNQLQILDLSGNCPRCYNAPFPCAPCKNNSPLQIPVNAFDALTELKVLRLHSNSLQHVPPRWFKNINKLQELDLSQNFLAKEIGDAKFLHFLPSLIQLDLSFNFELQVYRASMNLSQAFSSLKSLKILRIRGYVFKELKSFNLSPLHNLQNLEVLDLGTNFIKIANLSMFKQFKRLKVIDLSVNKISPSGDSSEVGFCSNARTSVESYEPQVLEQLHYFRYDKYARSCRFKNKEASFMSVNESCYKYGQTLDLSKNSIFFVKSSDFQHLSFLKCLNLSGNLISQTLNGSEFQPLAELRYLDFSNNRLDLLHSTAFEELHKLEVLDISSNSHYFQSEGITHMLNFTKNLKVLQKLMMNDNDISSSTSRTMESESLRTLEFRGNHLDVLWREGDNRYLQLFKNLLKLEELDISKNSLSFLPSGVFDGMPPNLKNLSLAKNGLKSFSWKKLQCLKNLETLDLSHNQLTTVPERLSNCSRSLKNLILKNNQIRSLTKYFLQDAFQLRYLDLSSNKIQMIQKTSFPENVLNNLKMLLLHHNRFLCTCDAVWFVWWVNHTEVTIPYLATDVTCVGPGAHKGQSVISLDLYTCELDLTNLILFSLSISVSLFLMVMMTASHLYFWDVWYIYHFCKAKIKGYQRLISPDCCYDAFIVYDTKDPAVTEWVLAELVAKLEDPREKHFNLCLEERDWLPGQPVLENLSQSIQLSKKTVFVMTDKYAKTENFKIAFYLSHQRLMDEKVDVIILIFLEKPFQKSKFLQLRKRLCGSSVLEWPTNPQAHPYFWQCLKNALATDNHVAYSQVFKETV
Outline: (§1)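 Agonists used: gardiquimod 7.5 μM (TLR7), R848 15.9 μM (TLR8), ODN2006 5 nM (TLR9), added after 30 min room-temperature compound pre-treatment (0.05 nM–50 μM) of receptor-overexpressing HEK-Blue cells. SEAP reporter (NF-κB/AP-1 driven) read after 22 h at 37 °C; inhibition scaled between agonist+DMSO and reference-inhibitor wells.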

[2] = target: T2, human TLR8 (Homo sapiens, UniProt Q9NR97); assay: TLR8 inhibition reporter assay (HEK-Blue cells, SEAP reporter, R848 stimulation); details: HEK-Blue cells overexpressing human TLR8, SEAP reporter, R848 15.9 μM; read-out: TLR8 IC50
T2 construct: host or cells: HEK-Blue cells
T2 sequence (Q9NR97 27-1041): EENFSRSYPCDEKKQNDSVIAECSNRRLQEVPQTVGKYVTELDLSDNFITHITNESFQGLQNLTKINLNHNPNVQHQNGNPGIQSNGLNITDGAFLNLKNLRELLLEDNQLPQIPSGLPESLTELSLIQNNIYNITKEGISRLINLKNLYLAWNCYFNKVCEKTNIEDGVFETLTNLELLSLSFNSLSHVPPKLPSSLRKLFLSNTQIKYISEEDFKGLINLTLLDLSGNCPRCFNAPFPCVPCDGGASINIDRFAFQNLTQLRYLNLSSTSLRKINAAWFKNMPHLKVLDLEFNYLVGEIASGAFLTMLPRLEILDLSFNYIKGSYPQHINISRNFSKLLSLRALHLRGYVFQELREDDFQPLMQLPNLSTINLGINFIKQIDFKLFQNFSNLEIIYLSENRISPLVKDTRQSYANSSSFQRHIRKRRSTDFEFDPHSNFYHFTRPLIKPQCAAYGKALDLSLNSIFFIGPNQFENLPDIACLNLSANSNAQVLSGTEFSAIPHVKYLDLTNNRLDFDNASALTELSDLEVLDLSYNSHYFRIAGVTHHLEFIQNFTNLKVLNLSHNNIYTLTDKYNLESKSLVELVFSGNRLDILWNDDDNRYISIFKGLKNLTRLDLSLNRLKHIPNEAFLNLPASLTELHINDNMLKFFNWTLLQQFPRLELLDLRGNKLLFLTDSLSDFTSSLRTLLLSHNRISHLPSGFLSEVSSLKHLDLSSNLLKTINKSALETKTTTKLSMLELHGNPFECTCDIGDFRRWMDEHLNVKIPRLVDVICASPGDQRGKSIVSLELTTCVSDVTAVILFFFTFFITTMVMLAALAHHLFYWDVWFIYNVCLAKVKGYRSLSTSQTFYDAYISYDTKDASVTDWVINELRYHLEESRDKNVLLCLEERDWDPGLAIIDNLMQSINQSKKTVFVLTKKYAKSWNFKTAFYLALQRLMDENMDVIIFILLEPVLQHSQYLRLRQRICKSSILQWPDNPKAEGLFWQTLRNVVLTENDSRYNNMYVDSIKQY
Outline: as §1

[3] = target: T3, human TLR9 (Homo sapiens, UniProt Q9NR96); assay: TLR9 inhibition reporter assay (HEK-Blue cells, SEAP reporter, ODN2006 stimulation); details: HEK-Blue cells overexpressing human TLR9, SEAP reporter, ODN2006 5 nM
T3 construct: host or cells: HEK-Blue cells
T3 sequence (Q9NR96 26-1032): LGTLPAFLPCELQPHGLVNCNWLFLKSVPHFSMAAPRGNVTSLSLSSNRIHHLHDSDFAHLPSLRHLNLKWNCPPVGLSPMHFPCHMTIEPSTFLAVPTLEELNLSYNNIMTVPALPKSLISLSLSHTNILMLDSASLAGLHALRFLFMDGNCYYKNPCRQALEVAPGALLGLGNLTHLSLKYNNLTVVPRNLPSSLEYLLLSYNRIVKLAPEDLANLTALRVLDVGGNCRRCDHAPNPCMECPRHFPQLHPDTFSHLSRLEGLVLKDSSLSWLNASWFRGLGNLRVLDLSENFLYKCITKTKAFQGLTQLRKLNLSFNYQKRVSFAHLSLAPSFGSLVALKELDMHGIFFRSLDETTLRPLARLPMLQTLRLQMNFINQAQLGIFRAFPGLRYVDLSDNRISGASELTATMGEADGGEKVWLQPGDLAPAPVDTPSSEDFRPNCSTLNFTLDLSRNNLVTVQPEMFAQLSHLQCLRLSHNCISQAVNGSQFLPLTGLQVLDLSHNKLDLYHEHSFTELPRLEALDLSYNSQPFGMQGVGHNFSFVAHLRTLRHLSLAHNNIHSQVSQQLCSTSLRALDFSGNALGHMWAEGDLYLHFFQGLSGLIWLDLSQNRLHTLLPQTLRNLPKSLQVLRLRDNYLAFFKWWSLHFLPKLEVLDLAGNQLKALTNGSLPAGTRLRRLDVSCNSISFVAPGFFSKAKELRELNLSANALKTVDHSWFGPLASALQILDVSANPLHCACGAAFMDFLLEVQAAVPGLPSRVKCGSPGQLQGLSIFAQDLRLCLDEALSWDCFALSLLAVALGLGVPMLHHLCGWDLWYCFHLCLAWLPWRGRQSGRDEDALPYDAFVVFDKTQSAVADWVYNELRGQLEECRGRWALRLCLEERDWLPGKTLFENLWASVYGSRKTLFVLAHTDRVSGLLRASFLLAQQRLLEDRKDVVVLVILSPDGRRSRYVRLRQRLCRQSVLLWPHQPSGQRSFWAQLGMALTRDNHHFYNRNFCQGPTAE
Outline: as §1

IC50 [1] [µM]	IC50 [2] [µM]	IC50 [3] [µM]	Compound
0.00689	0.039	> 50	Cc1cc(-c2[nH]c3sc(C4CCN(C(C)C)CC4)nc3c2C(C)C)cn2ncnc12 [Example 21, 6-isopropyl-2-(1-isopropylpiperidin-4-yl)-5-(8-methyl-[1,2,4]triazolo[1,5-a]pyridin-6-yl)-4H-pyrrolo[3,2-d]thiazole]
0.00123	0.0009	4.85	Cc1cc(-c2[nH]c3sc(C4CCN(C5CCOCC5)CC4)nc3c2C(C)C)cn2ncnc12 [Example 22, 6-isopropyl-5-(8-methyl-[1,2,4]triazolo[1,5-a]pyridin-6-yl)-2-(1-(tetrahydro-2H-pyran-4-yl)piperidin-4-yl)-4H-pyrrolo[3,2-d]thiazole]
0.00127	0.00101	4.77	Cc1cc(-c2[nH]c3sc(C4CCN(CC5(C)COC5)CC4)nc3c2C(C)C)cn2ncnc12 [Example 23, 6-isopropyl-5-(8-methyl-[1,2,4]triazolo[1,5-a]pyridin-6-yl)-2-(1-((3-methyloxetan-3-yl)methyl)piperidin-4-yl)-4H-pyrrolo[3,2-d]thiazole]
0.0434	0.0125	0.793	Cc1cc(-c2[nH]c3sc(C4CCN(CC(=O)N(C)C)CC4)nc3c2C(C)C)cc(C)n1 [Example 24, 2-(4-(5-(2,6-dimethylpyridin-4-yl)-6-isopropyl-4H-pyrrolo[3,2-d]thiazol-2-yl)piperidin-1-yl)-N,N-dimethylacetamide]
0.0256	0.0103	0.447	Cc1cc(-c2[nH]c3sc(C4CCN(C(C)C)CC4)nc3c2C(C)C)cc(C)n1 [Example 25, 5-(2,6-dimethylpyridin-4-yl)-6-isopropyl-2-(1-isopropylpiperidin-4-yl)-4H-pyrrolo[3,2-d]thiazole]
0.442	0.413	7.21	Cc1cc(-c2[nH]c3sc(C4CCN(C5CCOCC5)CC4)nc3c2C(C)C)cc(C)n1 [Example 26, 5-(2,6-dimethylpyridin-4-yl)-6-isopropyl-2-(1-(tetrahydro-2H-pyran-4-yl)piperidin-4-yl)-4H-pyrrolo[3,2-d]thiazole]
0.0297	0.00287	0.388	Cc1cc(-c2[nH]c3sc(C4CCN(CC5(C)COC5)CC4)nc3c2C(C)C)cc(C)n1 [Example 27, 5-(2,6-dimethylpyridin-4-yl)-6-isopropyl-2-(1-((3-methyloxetan-3-yl)methyl)piperidin-4-yl)-4H-pyrrolo[3,2-d]thiazole]
0.039	0.265	0.645	Cc1cc(-c2[nH]c3sc(C4CCN(C(=O)CN(C)C)CC4)nc3c2C(C)C)cc(C)n1 [Example 28, 2-(dimethylamino)-1-(4-(5-(2,6-dimethylpyridin-4-yl)-6-isopropyl-4H-pyrrolo[3,2-d]thiazol-2-yl)piperidin-1-yl)ethan-1-one]
0.0184	0.00191	0.216	Cc1cc(-c2[nH]c3sc(C4CCN(CC(C)(C)O)CC4)nc3c2C(C)C)cc(C)n1 [Example 29, 1-(4-(5-(2,6-dimethylpyridin-4-yl)-6-isopropyl-4H-pyrrolo[3,2-d]thiazol-2-yl)piperidin-1-yl)-2-methylpropan-2-ol]
0.00437	0.00207	14.8	CC(C)c1c(-c2cn(C)c3ncccc23)[nH]c2sc(C3CCN(CC(=O)N(C)C)CC3)nc12 [Example 30, 2-(4-(6-isopropyl-5-(1-methyl-1H-pyrrolo[2,3-b]pyridin-3-yl)-4H-pyrrolo[3,2-d]thiazol-2-yl)piperidin-1-yl)-N,N-dimethylacetamide]
0.00277	0.00079	4.35	CC(C)c1c(-c2cn(C)c3ncccc23)[nH]c2sc(C3CCN(C4CCOCC4)CC3)nc12 [Example 35, 6-isopropyl-5-(1-methyl-1H-pyrrolo[2,3-b]pyridin-3-yl)-2-(1-(tetrahydro-2H-pyran-4-yl)piperidin-4-yl)-4H-pyrrolo[3,2-d]thiazole]
1.3	1.54	25.2	CC(C)c1c(-c2cn(C)c3ncccc23)[nH]c2sc(C3CCN(C(C)C)CC3)nc12 [Example 36, 6-isopropyl-2-(1-isopropylpiperidin-4-yl)-5-(1-methyl-1H-pyrrolo[2,3-b]pyridin-3-yl)-4H-pyrrolo[3,2-d]thiazole]
0.0121	0.027	27.9	CC(C)c1c(-c2ccc(C#N)c3ncccc23)[nH]c2sc(C3CCN(C4COC4)CC3)nc12 [Example 37, 5-(6-isopropyl-2-(1-(oxetan-3-yl)piperidin-4-yl)-4H-pyrrolo[3,2-d]thiazol-5-yl)quinoline-8-carbonitrile]
0.00793	0.00443	2.28	CC(C)c1c(-c2ccc(C#N)c3ncccc23)[nH]c2sc(C3CCN(C4CCOCC4)CC3)nc12 [Example 38, 5-(6-isopropyl-2-(1-(tetrahydro-2H-pyran-4-yl)piperidin-4-yl)-4H-pyrrolo[3,2-d]thiazol-5-yl) quinoline-8-carbonitrile]
